In patent US4299834A, “8-Phenyl-purines and pharmaceutical compositions containing same” (Boehringer Ingelheim Gesellschaft mit beschrankter Haftung, priority 1979, dated 1981):

What was measured:
white mice = assay: Acute Toxicity in white mice after oral administration; format: in vivo; details: single dose of 300 mg/kg, observation time 14 days
Method: (§1) The acute toxicity of the test compounds was determined in white mice after oral administration of a single dose of 300 mg/kg (observation time: 14 days).

[1] = as above; format: in vivo; details: mouse, in vivo, single dose of 300 mg/kg, observation time 14 days
Method: as §1

| Structure (SMILES) | animals died (white mice) | LD50 at 336 h [1] |
| --- | --- | --- |
| COc1cc([S+](C)[O-])ccc1-c1nc2ncncc2[nH]1 (stereo not drawn) [H, 8-(2-Methoxy-4-methylsulfinyl-phenyl)-purine] | 3 out of 6 | ~300 mg/kg |
| COc1cc(Cl)ccc1-c1nc2ncncc2[nH]1 [G, 8-(4-Chloro-2-methoxy-phenyl)-purine] | 1 out of 6 | > 300 mg/kg |
| COc1ccc(-c2nc3ncncc3[nH]2)c(OC)c1 [A, 8-(2,4-Dimethoxy-phenyl)-purine] | 0 out of 6 | > 300 mg/kg |
| COc1ccc(-c2nc3ncncc3[nH]2)c(OCC[S+](C)[O-])c1 (stereo not drawn) [D, 8-[4-Methoxy-2-(2-methylsulfinyl-ethoxy)-phenyl]purine] | 0 out of 6 | > 300 mg/kg |
| COc1cc(SC)ccc1-c1nc2ncncc2[nH]1 [B, 8-(2-Methoxy-4-methylmercapto-phenyl)-purine] | 2 out of 6 | > 300 mg/kg |
| COc1ccc(-c2nc3ncncc3[nH]2)c(OCCSC)c1 [C, 8-[4-Methoxy-2-(2-methylmercapto-ethoxy)-phenyl]purine] | 0 out of 6 | > 300 mg/kg |
